# US9458154B2, “Kinase inhibitors” (Chiesi Farmaceutici S.p.A., priority 2011, dated 2016)
# Biological target: T1, p38alpha (Homo sapiens, UniProt Q16539)
# T1 construct: purchased Invitrogen PV3304
# Assay: P38alpha Enzyme Inhibition Assay (Alphascreen kinase activity assay)
# Type: biochemical
# Conditions: 100 pM p38alpha, ATF-2 fusion protein substrate, 250 μM ATP, 2 hours preincubation at 25° C.; read-out: p38α inhibition
# Description: P38alpha Enzyme Inhibition Assay
# The inhibitory activity of compounds was determined using an Alphascreen® (Perkin Elmer) based kinase activity assay. Kinase reactions consisted of 25 mM HEPES pH 7.5, 10 mM MgCl2, 100 μM Na3VO4, 2 mM DTT, 0.05 mg/ml Tween 20, 100 pM p38alpha (Invitrogen, PV3304), 1% DMSO and 0.3 μg/ml ATF-2 fusion protein (New England Biolabs, 9224). Compounds were incubated under these conditions for 2 hours, at 25° C., prior to the initiation of the kinase activity by the addition of the 250 μM ATP. Reaction volumes were 20 uL. After 1 hr at 25° C. reactions were stopped by the adding 10 uL of 25 mM HEPES pH 7.5 containing 62.5 mM EDTA, 0.05% Triton X-100, 10% BSA and 0.83 ng/uL anti-phospho-ATF2 antibody (Abcam, ab28812). Detection was performed by measuring luminescence following the addition of Alphascreen Donor beads (Perkin Elmer 6765300) and Protein A Alphascreen Acceptor beads (Perkin Elmer 6760137), both at a final concentration of 20 ug/ml. IC50 values were determined from concentration-response curves.
# T1 sequence (Q16539 whole entry): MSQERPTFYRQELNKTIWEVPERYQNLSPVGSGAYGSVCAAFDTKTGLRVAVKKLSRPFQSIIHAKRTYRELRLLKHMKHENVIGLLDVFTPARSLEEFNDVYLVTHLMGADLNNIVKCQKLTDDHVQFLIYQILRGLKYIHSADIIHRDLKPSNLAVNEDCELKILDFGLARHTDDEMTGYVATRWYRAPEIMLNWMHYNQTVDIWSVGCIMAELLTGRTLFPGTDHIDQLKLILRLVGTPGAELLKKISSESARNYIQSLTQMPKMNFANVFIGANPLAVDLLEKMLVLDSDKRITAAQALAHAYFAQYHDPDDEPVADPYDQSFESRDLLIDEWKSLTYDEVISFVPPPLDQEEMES
row,SMILES,IC50 [nM]
1,"CC(C)c1nnc2ccc(O[C@H]3CC[C@H](NC(=O)Nc4cc(F)cc(N5CCOCC5)c4)c4ccccc43)cn12 [Example 30, 1-(3-Fluoro-5-morpholin-4-yl-phenyl)-3-[(1S,4S)-4-(3-isopropyl-[1,2,4]triazolo[4,3-a]pyridin-6-yloxy)-1,2,3,4-tetrahydro-naphthalen-1-yl]-urea]",< 10
2,"CC(C)c1nnc2ccc(O[C@@H]3CC[C@H](NC(=O)Nc4cc(C(C)(C)C)nn4-c4ccc(F)c(CN5CCOCC5)c4)c4ccccc43)cn12 [Example 31, 1-{5-tert-Butyl-2-(4-fluoro-3-morpholin-4-ylmethyl-phenyl)-2H-pyrazol-3-yl}-3-[(1S,4R)-4-(3-isopropyl-[1,2,4]triazolo[4,3-a]pyridin-6-yloxy)-1,2,3,4-tetrahydro-naphthalen-1-yl]-urea]",< 10

# Next, values leading:
row,IC50 [nM],SMILES
1,< 10,"Cc1ccc(-n2nc(C(C)(C)C)cc2NC(=O)N[C@H]2CC[C@@H](Oc3ccc4nnc(C5CCCCC5)n4c3)c3ccccc32)cc1 [Example 26, 1-(5-tert-Butyl-2-p-tolyl-2H-pyrazol-3-yl)-3-[(1S,4R)-4-(3-cyclohexyl-[1,2,4]triazolo[4,3-a]pyridin-6-yloxy)-1,2,3,4-tetrahydro-naphthalen-1-yl]-urea]"
2,< 10,"CC(C)c1nnc2ccc(O[C@H]3CC[C@H](NC(=O)Nc4cc(C(C)(C)C)nn4-c4ccc(Cl)c(O)c4)c4ccccc43)cn12 [Example 27, 1-[5-tert-Butyl-2-(4-chloro-3-hydroxy-phenyl)-2H-pyrazol-3-yl]-3-[(1S,4S)-4-(3-isopropyl-[1,2,4]triazolo[4,3-a]pyridin-6-yloxy)-1,2,3,4-tetrahydro-naphthalen-1-yl]-urea]"
3,< 10,"COc1c(NC(=O)N[C@H]2CC[C@@H](Oc3ccc4nnc(C(C)C)n4c3)c3ccccc32)cc(C(C)(C)C)cc1NS(C)(=O)=O [Example 28, N-(5-tert-Butyl-3-{3-[(1S,4R)-4-(3-isopropyl-[1,2,4]triazolo[4,3-a]pyridin-6-yloxy)-1,2,3,4-tetrahydro-naphthalen-1-yl]-ureido}-2-methoxy-phenyl)-methanesulfonamide]"
4,< 10,"CC(C)c1nnc2ccc(O[C@@H]3CC[C@H](NC(=O)Nc4cc(F)cc(N5CCOCC5)c4)c4ccccc43)cn12 [Example 29, 1-(3-Fluoro-5-morpholin-4-yl-phenyl)-3-[(1S,4R)-4-(3-isopropyl-[1,2,4]triazolo[4,3-a]pyridin-6-yloxy)-1,2,3,4-tetrahydro-naphthalen-1-yl]-urea]"
